Like-named read-outs stand apart in the source and are kept apart here.
What was measured:
[1] = test system: anti-cortisol (17) Fab fragment; assay: Native MS direct ligand titration, KD by one-site binding fit; design: species or system murine; conditions: native MS KD ratio
[2] = biological target: anti-cortisol (17) Fab fragment; assay: Surface plasmon resonance; format: binding, murine; conditions: read-out: KD (SPR); determined in this work
[3] = biological target: anti-cortisol (17) Fab fragment; assay: Initial ligand screening by native MS; format: binding, murine; conditions: Fab 0.1 μM, ligand 100 nM to 10 μM
[4] = biological target: anti-cortisol (17) Fab fragment; conditions: read-out: KD (SPR); determined in previous work ref 9; cited from earlier work

| Compound | fold higher KD compared to corticosterone [1] | Kd [2] | approximate KD range from initial ligand screening [3] | Kd [4] |
| --- | --- | --- | --- | --- |
| C[C@]12CCC(=O)C=C1CC[C@@H]1[C@@H]2CC[C@@]2(C)[C@H]1CC[C@]2(O)C(=O)CO [11-deoxycortisol] | more than 4 fold | 120 nM | submicromolar affinity | – |
| C[C@]12C[C@H](O)[C@H]3[C@@H](CCC4=CC(=O)CC[C@@]43C)[C@@H]1CC[C@@H]2C(=O)CO [corticosterone] | – | – | nanomolar range | 31 ± 2 nM |
| C[C@]12CCC(=O)C=C1CC[C@@H]1[C@@H]2[C@@H](O)C[C@@]2(C)[C@H]1CC[C@]2(O)C(=O)CO [cortisol] | – | – | nanomolar range | 7 ± 1 nM |
| C[C@]12C=CC(=O)C=C1CC[C@@H]1[C@@H]2[C@@H](O)C[C@@]2(C)[C@H]1CC[C@]2(O)C(=O)CO [prednisolone] | – | – | nanomolar range | 13 ± 1 nM |
| CC(=O)[C@H]1CC[C@H]2[C@@H]3CCC4=CC(=O)CC[C@]4(C)[C@H]3CC[C@]12C [progesterone] | – | – | – | 15000 ± 3000 nM |
| C[C@]12CC[C@H]3[C@@H](CCC4=CC(=O)CC[C@@]43C)[C@@H]1CC[C@@H]2O [testosterone] | – | – | – | 23000 ± 4000 nM |

From article PMC11024979 (ACS Omega, 2024)
